Experiment [1] addresses T1, human FXR ligand binding domain (LBD) (Homo sapiens, UniProt Q96RI1).
T1 construct: polyhistidine (pRSET-A vector leader) (N); made in house; host or cells: E. coli BL21 (DE3), pRSET-A vector
T1 sequence (Q96RI1 237-472 isoform Q96RI1-2): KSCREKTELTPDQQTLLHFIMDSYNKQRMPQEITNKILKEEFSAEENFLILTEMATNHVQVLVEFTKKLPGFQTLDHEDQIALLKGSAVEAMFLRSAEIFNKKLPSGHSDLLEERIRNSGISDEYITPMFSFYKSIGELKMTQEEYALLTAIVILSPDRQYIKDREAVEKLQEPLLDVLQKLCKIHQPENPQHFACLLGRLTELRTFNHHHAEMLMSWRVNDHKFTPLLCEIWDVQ
T1 sequence (Q15788 676-700 partner): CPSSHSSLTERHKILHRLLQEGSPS
The experiment can be described thus: FXR Cofactor Binding Assay (TRF, SRC-1 peptide recruitment). The class given is biochemical. Conditions: read-out: Activity (pEC50) (converted). The text has this:
Determination of a ligand mediated cofactor peptide interaction to quantify ligand binding to the nuclear receptor Farnasoid X Receptor (FXR). The method measures the ability of putative ligands to modulate the interaction between the purified bacterial expressed human FXR ligand binding domain (LBD) and a synthetic biotinylated peptide based on residues 676-700 of steroid receptor coactivator-1 (SRC-1) (LXXLL-containing domain-2 where L is the amino acid leucine and X indicates any other amino acid (LCD2), 676-700). The sequence of the SRC-1 peptide used is as published in Iannone, M. A. et al, Cytometry 44:326-337 (2001) where the N-terminus was biotinylated (B) and the C-terminus was amidated. Detection of the associated complex was measured by time resolved fluorescence (TRF). The purified LBD of FXR was labeled with biotin then mixed with stoichiometric amounts of allophycocyanin (APC) labeled streptavidin (Molecular Probes). The biotinylated peptide was then mixed with a ½ stoichiometric amount of europium labeled streptavidin (Wallac Inc). Each was then blocked with a 5 fold excess of biotin and allowed to equilibrate for 15 min. Equimolar amounts of receptor and peptide were mixed together and were allowed to equilibrate for at least 30 min prior to the addition to either a variable or constant concentrations of the sample for which the affinity is to be determined. After equilibration, the time-resolved fluorescent signal was quantitated using a fluorescent plate reader. The affinity of the test compound was estimated from a plot of fluorescence versus concentration of test compound added.
A basal level of FXR: peptide formation is observed in the absence of added ligand. Ligands that promote the complex formation induce a concentration-dependent increase in time-resolved fluorescent signal. Compounds which bind equally well to both non-/un-complexed FXR and to the FXR: peptide complex would be expected to give no change in signal, whereas ligands which bind preferentially to the non-/un-complexed receptor would be expected to induce a concentration-dependent decrease in the observed signal.
Human FXR Ligand Binding Domain (FXR LBD) was expressed in E. coli strain BL21 (DE3) as an amino-terminal polyhistidine tagged fusion protein. Expression was under the control of an isopropyl-β-D-thiogalactopyranoside (IPTG) inducible T7 promoter. DNA encoding this recombinant protein is subcloned into the pRSET-A expression vector (Invitrogen). The coding sequence of Human FXR LBD was derived from Genbank accession number U 68233 (amino acids 237 to 472).
Ten-liter fermentation batches were grown in Rich PO4 media with 0.1 mg/mL Ampicillin at 25° C. for 12 hours, cooled to 9° C. and held at that temperature for 36 hours to a density of OD600=14. At this cell density, 0.25 mM IPTG is added and induction proceeded for 24 hours at 9° C., to a final OD600=16. Cells are harvested by centrifugation (20 minutes, 3500× gravity, 4° C.), and concentrated cell slurries were stored in phosphate buffered saline (PBS) at […].
Routinely, 30-40 g cell paste (equivalent to 2-3 liters of the fermentation batch) was resuspended in 200-250 mL Tris buffered saline (TBS), pH 7.2 (25 mM Tris-Hydroxymethylamino methane (Tris), 150 mM NaCl). Cells were lysed by passing 3 times through a French Press and cell debris was removed by centrifugation (30 minutes, 20,000× gravity, 4° C.). The cleared supernatant was filtered through course pre-filters, and TBS, pH 7.2, 500 mM imidazole was added to obtain a final imidazole concentration of 50 mM. This lysate was loaded onto a column (6×8 cm) packed with Sepharose [Ni^++ charged] Chelation resin (Pharmacia) and pre-equilibrated with TBS pH 7.2/50 mM imidazole. After washing to baseline absorbance with equilibration buffer, the column was washed with one column volume of TBS pH 7.2 containing 90 mM imidazole. FXR LBD was eluted directly with 365 mM imidazole. […]

In experiment [2] the test system is high-fat diet induced insulin resistant, glucose intolerant, and obese mouse model. The experiment can be described thus: High-fat diet induced insulin resistant, glucose intolerant, obese mouse model. The class given is in vivo. Conditions: C57BL mice, 100 mg/kg twice a day orally. The text has this: Compounds of formula (I) are also useful for the treatment of diabetes mellitus in a subject, such as a mammal, particularly a human. For example, the compounds of formula (I) are useful for the treatment of type 2 diabetes. The effects of an FXR agonist, GW4064, on body weight, glucose tolerance, serum glucose, serum insulin, serum triglyceride, and liver triglyceride contents via oral administration have been observed in an high-fat diet induced insulin resistant, glucose intolerant, and obese mouse model. Male 20 to 25 g C57BL mice (Charles River, Indianapolis, Ind.) were housed at 72° F. and 50% relative humidity with a 12 h light and dark cycle and fed with standard rodent chow (Purina 5001, Harlan Teklad, Indianapolis, Ind.) or a high-fat diet (TD93075, Harlan Teklad, Indianapolis, Ind.) for seven weeks. After two weeks, mice on high-fat diet were randomized to vehicle or treatment groups. There were no significant difference in body weight, body fat mass, serum glucose and insulin, and area under the curve (AUC) for glucose in glucose tolerance test (GTT) between the vehicle group and the treatment group. Starting from the fourth week, mice were given either vehicle or GW4064 (100 mg/kg) twice a day orally. Mice on the standard rodent chow were also given vehicle as a control. At the end of the third week of compound treatment, a GTT was performed and body composition was measured using the quantitative magnetic resonance (QMR) method. […] Blood glucose during GTT was measured using Bayer Glucometer Elite® XL. Serum chemistry levels were measured using the Instrumentation Laboratory Ilab600™ clinical chemistry analyzer (Instrumentation Laboratory, Boston, Mass.). Liver triglyceride contents were measured using the methanolic-KOH saponification method and a triglyceride assay kit (GPO-TRINDER, Sigma Diagnostics, St. Louis, Mo.). […] It is believed that the result may have been due to a decrease in fat mass.

Experiment [3] concerns bile duct-ligated mouse model of cholestasis and intestinal bacterial overgrowth. Conditions: cited from earlier work.
Experiment [4] relates to mice on a lithogenic diet. Conditions: cited from earlier work.
[5] abbreviates: protocol †: 0.1 μL of test compound, final assay volume 10 μL.
The mark [6] stands for this setting: protocol ⋄: 0.5 μL of test compound, final assay volume 25 μL.

These results are taken from patent publication US7705028B2, “Farnesoid X receptor agonists” (GlaxoSmithKline LLC, priority 2005, dated 2010).

Counter-ions that a name gives are not always drawn. Like-named read-outs stand apart in the source and are kept apart here.

As to `CC(C)c1onc(-c2c(Cl)cccc2Cl)c1COc1ccc(-c2ccc3c(C(=O)O)cccc3c2)cc1` [Example 1, 6-[4-({[3-(2,6-Dichlorophenyl)-5-(1-methylethyl)-4-isoxazolyl]methyl}oxy)phenyl]-1-naphthoic Acid Sodium Salt], the EC50 in experiment [1] (setting [5]) and in experiment [1] (setting [6]) was under 100 nM in each case.

Regarding `CC(C)c1onc(-c2c(Cl)cccc2Cl)c1COc1ccc(-c2ccc3c(C(=O)O)cccc3c2)c(Cl)c1` [Example 2, 6-[2-Chloro-4-({[3-(2,6-dichlorophenyl)-5-(1-methylethyl)-4-isoxazolyl]methyl}oxy)phenyl]-1-naphthalenecarboxylic acid], the EC50 in experiment [1] (setting [5]) was 102 to 1000 nM.

Take `O=C(O)c1cccc2cc(-c3ccc(OCc4c(-c5c(Cl)cccc5Cl)noc4C4CCC4)cc3)ccc12` [Example 3, 6-[4-({[5-cyclobutyl-3-(2,6-dichlorophenyl)-4-isoxazolyl]methyl}oxy)phenyl]-1-naphthalenecarboxylic acid]: in experiment [1] (setting [5]), the EC50 is 102 to 1000 nM.

In the case of `CC(C)c1onc(Cc2c(Cl)cccc2Cl)c1COc1ccc(-c2ccc3c(C(=O)O)cccc3c2)cc1` [Example 4, 6-[4-({[3-[(2,6-dichlorophenyl)methyl]-5-(1-methylethyl)-4-isoxazolyl]methyl}oxy)phenyl]-1-naphthalenecarboxylic acid], the EC50 in experiment [1] (setting [6]) is 102 to 1000 nM.

With `CC(C)c1onc(CCc2c(Cl)cccc2Cl)c1COc1ccc(-c2ccc3c(C(=O)O)cccc3c2)cc1` [Example 5, 6-[4-({[3-[2-(2,6-dichlorophenyl)ethyl]-5-(1-methylethyl)-4-isoxazolyl]methyl}oxy)phenyl]-1-naphthalenecarboxylic acid], the EC50 is 102 to 1000 nM in experiment [1] (setting [5]) and under 100 nM in experiment [1] (setting [6]).

With `CC(C)c1onc(-c2c(Cl)cccc2Cl)c1COc1ccc(-c2ccc3cc(C(=O)O)ccc3c2)cc1` [Example 6, 6-(4-{[3-(2,6-dichlorophenyl)-5-isopropylisoxazol-4-yl]methoxy}phenyl)-2-naphthoic acid], the EC50 in experiment [1] (setting [5]) was 102 to 1000 nM.

With `CC(C)c1onc(-c2c(Cl)cccc2Cl)c1COc1ccc(-c2ccc3ccc(C(=O)O)cc3c2)cc1` [Example 8, 7-[4-({[3-(2,6-dichlorophenyl)-5-(1-methylethyl)-4-isoxazolyl]methyl}oxy)phenyl]-2-naphthalenecarboxylic acid], in experiment [1] (setting [5]), the EC50 was 102 to 1000 nM.

In the case of `CC(C)c1onc(CCc2c(Cl)cccc2Cl)c1COc1ccc(-c2ccc3ccc(C(=O)O)cc3c2)cc1` [Example 9, 7-[4-({[3-[2-(2,6-dichlorophenyl)ethyl]-5-(1-methylethyl)-4-isoxazolyl]methyl}oxy)phenyl]-2-naphthalenecarboxylic acid], the EC50 in experiment [1] (setting [5]) was 102 to 1000 nM.

For the compound `CC(C)c1onc(-c2c(Cl)cccc2Cl)c1COc1ccc(-c2ccc3cccc(C(=O)O)c3c2)cc1` [Example 10, 7-[4-({[3-(2,6-dichlorophenyl)-5-(1-methylethyl)-4-isoxazolyl]methyl}oxy)phenyl]-1-naphthalenecarboxylic acid], in experiment [1] (setting [5]), the EC50 is 1020 to 10000 nM.

With `CC(C)c1onc(CCc2c(Cl)cccc2Cl)c1COc1ccc(-c2ccc3cccc(C(=O)O)c3c2)cc1` [Example 11, 7-[4-({[3-[2-(2,6-dichlorophenyl)ethyl]-5-(1-methylethyl)-4-isoxazolyl]methyl}oxy)phenyl]-1-naphthalenecarboxylic acid], the EC50 in experiment [1] (setting [5]) is 1020 to 10000 nM.

With `CC(C)c1onc(-c2c(Cl)cccc2Cl)c1COc1ccc(-c2ccc3c(C(N)=O)cccc3c2)cc1` [Example 12a, 6-[4-({[3-(2,6-dichlorophenyl)-5-(1-methylethyl)-4-isoxazolyl]methyl}oxy)phenyl]-1-naphthalenecarboxamide], in experiment [1] (setting [6]), the EC50 is 1020 to 10000 nM.

As to `CC(C)c1onc(-c2c(Cl)cccc2Cl)c1COc1ccc(-c2ccc3c(C#N)cccc3c2)cc1` [Example 12b, 6-[4-({[3-(2,6-dichlorophenyl)-5-(1-methylethyl)-4-isoxazolyl]methyl}oxy)phenyl]-1-naphthalenecarbonitrile], the EC50 in experiment [1] (setting [6]) is 1020 to 10000 nM.

In the case of `CC(C)c1onc(-c2c(Cl)cccc2Cl)c1COc1ccc(-c2ccc3c(-c4nn[nH]n4)cccc3c2)cc1` [Example 12c, 5-{6-[4-({[3-(2,6-dichlorophenyl)-5-(1-methylethyl)-4-isoxazolyl]methyl}oxy)phenyl]-1-naphthalenyl}-1H-tetrazole], the EC50 in experiment [1] (setting [6]) is 102 to 1000 nM.

As to `CC(C)c1onc(-c2c(Cl)cccc2Cl)c1COc1ccc(/C=C/c2cccc(C(=O)O)c2)c(Cl)c1` [GW4064], the “high-fat diet induced body weight gain” value in experiment [2] is listed as “reduced the high-fat diet induced body weight gain”. Further, the “glucose tolerance (GTT)” value in experiment [2] (end of third week of treatment) is on record as “appeared to improve glucose tolerance”. Further, in experiment [2] (fourth week of treatment), the liver triglyceride content result is given as “reduced liver triglyceride content”, the serum glucose result was “decreased”, the serum insulin entry was “decreased” and the serum triglyceride result was “decreased”. For the same compound, the “effect on translocation of bacteria in FXR null mice” value in experiment [3] (FXR null mice) is “lost in FXR null mice”. Moreover, in experiment [3] (bile duct-ligated mice), the bacterial overgrowth entry is “decreased bacterial overgrowth”, the mucosal barrier entry is reported as “improved mucosal barrier” and the “translocation of bacteria to mesenteric lymph nodes” value is on record as “decreased translocation of bacteria to mesenteric lymph nodes”. Moreover, the “effect on cholesterol crystal formation in FXR null mice” value in experiment [4] (FXR null mice) is listed as “lost in FXR null mice”. For the same compound, in experiment [4] (mice on a lithogenic diet), the “formation of cholesterol crystals in the bile” value is on record as “prevented the formation of cholesterol crystals in the bile”.
